One assay concerns M. incognita. Description: microbe, parasite or virus in culture. As to conditions: Meloidogyne incognita, 48 h, read-out: Corrected Mortality Rate ± SD (%) M. incognita. An excerpt:
(§1) M. incognita (parasitic on tomato plants), A. besseyi (potato dextrose agar–Botrytis cinerea breeding), B. xylophilus (potato dextrose agar–Botrytis cinerea breeding), and C. elegans (nematode growth medium–inactivated Escherichia coli OP50 cultivation) were provided by the Fine Chemical Research and Development Center of Guizhou University (Guizhou, China). The methodology used for the nematocidal bioassays of these target compounds was modified in the light of the conventional methods reported in the previously published literature. The nematicidal activity of the target compounds against four nematodes was determined using 48-well biochemical culture dishes. All of the compounds were dissolved with 100 μL DMF and were diluted with 1% Tween-80 to obtain 200 and 50 μg/mL concentrations for the bioassays. Fosthiazate and tioxazafen were used as positive controls at the same concentrations, and a negative control group was prepared without compounds using the same methodology. An amount of 10 µL of nematode suspension (about 50 nematodes) and 300 µL of the trial solution were added to corresponding hole, and each treatment was set to three repetitions. All of the 48-well plates were placed in a biochemical incubator at 27 °C for dark light culture. […] Corrected mortality (%) = [(mortality of treatment % − mortality of negative control %)/(1 − mortality of negative control %)] × 100%(3)

In a further assay the test system is C. elegans. As to the kind of experiment: microbe, parasite or virus in culture. As to conditions: Caenorhabditis elegans, 48 h, read-out: Corrected Mortality Rate ± SD (%) C. elegans.
From the text: as §1

Another assay deals with B. xylophilus. As to the kind of experiment: microbe, parasite or virus in culture. As to conditions: Bursaphelenchus xylophilus, 48 h, read-out: Corrected Mortality Rate ± SD (%) B. xylophilus.
From the text: as §1

A further assay has as its system A. besseyi. Description: microbe, parasite or virus in culture. As to conditions: Aphelenchoides besseyi, 48 h, read-out: Corrected Mortality Rate ± SD (%) A. besseyi.
From the text: as §1

In the next assay the test system is B. cinerea. Description: In vitro mycelium growth inhibition test. In kind it is cell-based. As to conditions: Botrytis cinerea; 50 μg/mL; mycelial growth; mean ± SD of three replicates; read-out: Inhibition Rate (%) B. cinerea. The procedure:
(§2) B. cinerea and S. scleotiorum were kindly provided by the Department of Pesticides, College of Plant Protection, Nanjing Agricultural University (Nanjing, China). All compounds were evaluated for mycelium growth inhibition tests against the two plant pathogenic fungi mentioned in previous reports. These two fungi were inoculated on potato dextrose agar (PDA) plates and were grown in biochemical incubators at 25 ± 1 °C for 2–4 days. The new mycelium was used to determine the antifungal activity. The target compounds were dissolved in 100 µL DMF, and they were then added into the PDA media to make the concentration 50 µg/mL. Mycelia dishes of about 5 mm in diameter were cut from the culture medium. Mycelium were picked up with a sterile inoculation needle, and the sample was inoculated in the middle of a PDA plate in a sterile environment. Afterwards, a preliminary screening of fungal activity was performed. […] Each test was carried out three times. The radial growth of the fungal colonies was gauged and recorded when the diameters of the blank control mycelia reached 5.0–5.5 cm. […] The final data were analyzed using SPSS v.25.0 (IBM, New York, NY, USA). The following formula was used to calculate the fungi inhibition rate. Inhibition rate (%) = [(Mycelium diameter of negative control − Mycelium diameter of treatment)/(Mycelium diameter of negative control − 0.5)] × 100%(1)

The subject of a further assay is S. sclerotiorum. As to the kind of experiment: In vitro mycelium growth inhibition test. The assay is classed as cell-based. As to conditions: Sclerotinia sclerotiorum; 50 μg/mL; mycelial growth; mean ± SD of three replicates; read-out: Inhibition Rate (%) S. sclerotiorum. The procedure:
as §2

Usually mortality stands for the percentage killed. What is called inhibition is the relative decrease from the control value, in per cent. Regarding `Cc1ccc(-c2noc(C(=O)NCCc3ccccn3)n2)cc1` [Compound F5, N -(2-(pyridin-2-yl)ethyl)-3-(p-tolyl)-1,2,4-oxadiazole-5-carboxamide], the mortality at 50 µg/mL amounted to 3.5 ± 1.3% in the assay with M. incognita, 67.9 ± 2.3% in the assay on C. elegans, 0% in the assay on B. xylophilus and 0% in the assay on A. besseyi. The mortality at 200 µg/mL with M. incognita was determined as 35 ± 2.2%; in the assay with C. elegans, 94.6 ± 1.7%; in the assay with B. xylophilus, 8.1 ± 2.2%; with A. besseyi, 22.5 ± 3.2%. Further, the inhibition at 50 µg/mL with B. cinerea worked out at 24.9 ± 1.6%; in the assay with S. sclerotiorum it was 56.3 ± 1.2%.
With `O=C(Nc1ccc(Cl)cc1Cl)c1nc(-c2ccc(Cl)cc2)no1` [Compound F12, 3-(4-chlorophenyl)-N-(2,4-dichlorophenyl)-1,2,4-oxadiazole-5-carboxamide], the mortality at 50 µg/mL in the assay with M. incognita turned out to be 13.8 ± 2.3%; in the assay with C. elegans, 8.6 ± 1.6%; with B. xylophilus it was 0%; with A. besseyi, 0%. For the same compound, the mortality at 200 µg/mL worked out at 54.8 ± 2.5% in the assay with M. incognita, 47.6 ± 1.2% in the assay with C. elegans, 20.8 ± 2.5% in the assay on B. xylophilus and 18.8 ± 1.1% in the assay on A. besseyi. The results for the inhibition at 50 µg/mL in the assay on B. cinerea and in the assay on S. sclerotiorum were 29.1 ± 1.4% and 24.8 ± 1.4%, respectively.
On to `O=C(Nc1ccc(Cl)cc1Cl)c1nc(-c2ncc(C(F)(F)F)cc2Cl)no1` [Compound F24], for which the mortality at 50 µg/mL in the assay with M. incognita came out at 0%; with C. elegans, 9.6 ± 1.1%; in the assay with B. xylophilus, 0%; with A. besseyi it was 0%. In addition, the mortality at 200 µg/mL with M. incognita amounted to 18.5 ± 1.1%; in the assay on C. elegans it was 24.6 ± 1.4%; in the assay with B. xylophilus, 21.2 ± 1.5%; in the assay on A. besseyi, 23.4 ± 1.6%. Besides, the inhibition at 50 µg/mL in the assay on B. cinerea came out at 38.5 ± 0.5%; in the assay with S. sclerotiorum it was 1.8 ± 0.8%.
Regarding `O=C(NCCc1ccccn1)c1nc(-c2cccs2)no1` [Compound F13, N -(2-(pyridin-2-yl)ethyl)-3-(thiophen-2-yl)-1,2,4-oxadiazole-5-carboxamide], the mortality at 50 µg/mL with M. incognita amounted to 0%; in the assay with C. elegans, 70.4 ± 2.6%; in the assay with B. xylophilus it was 0%; in the assay with A. besseyi, 0%. Also, the mortality at 200 µg/mL was found to be 11.6 ± 1.1% with M. incognita, 100% in the assay on C. elegans, 9.1 ± 1.5% with B. xylophilus and 21.7 ± 2.4% in the assay on A. besseyi. In addition, the inhibition at 50 µg/mL with B. cinerea is 27.3 ± 0.4%; with S. sclerotiorum it was 41.1 ± 0.1%.
Turning to `c1ccc(-c2noc(-c3cccs3)n2)cc1` [Tioxazafen, tioxazafen, reference compound], the mortality at 50 µg/mL is 12.6 ± 3.2% with M. incognita, 90.4 ± 0.7% in the assay with C. elegans, 0% with B. xylophilus and 8.8 ± 2.4% in the assay on A. besseyi. Moreover, the mortality at 200 µg/mL in the assay on M. incognita was found to be 23.9 ± 3.3%; with C. elegans it was 100%; in the assay with B. xylophilus, 13.5 ± 1.2%; in the assay on A. besseyi, 61.4 ± 1.7%.
Take `O=C(NCCc1ncc(C(F)(F)F)cc1Cl)c1nc(-c2ccc(Cl)cc2)no1` [Compound F10, N-(2-(3-chloro-5-(trifluoromethyl)pyridin-2-yl)ethyl)-3-(4-chlorophenyl)-1,2,4-oxadiazole-5-carboxamide]: the mortality at 50 µg/mL is 0% in the assay with M. incognita, 69.3 ± 1.8% with C. elegans, 0% in the assay with B. xylophilus and 0% with A. besseyi. Besides, the mortality at 200 µg/mL with M. incognita was 15.8 ± 3.5%; in the assay on C. elegans, 100%; in the assay with B. xylophilus it was 12.1 ± 1.7%; in the assay on A. besseyi it was 23.6 ± 2.2%. In addition, the inhibition at 50 µg/mL with B. cinerea stood at 24.2 ± 1.7%; in the assay with S. sclerotiorum it was 48.6 ± 1.2%.
For the compound `O=C(NCc1ccc(F)cc1F)c1nc(-c2ccc(Cl)cc2)no1` [Compound F11, 3-(4-chlorophenyl)-N-(2,4-difluorobenzyl)-1,2,4-oxadiazole-5-carboxamide], the mortality at 50 µg/mL in the assay on M. incognita worked out at 24.8 ± 2.2%; in the assay on C. elegans, 10.6 ± 1.3%; in the assay with B. xylophilus, 0%; in the assay with A. besseyi, 0%. Further, the mortality at 200 µg/mL is 93.2 ± 2.1% in the assay on M. incognita, 73.6 ± 1.7% in the assay with C. elegans, 23.2 ± 2.1% with B. xylophilus and 19.8 ± 2.1% with A. besseyi. Moreover, the inhibition at 50 µg/mL in the assay on B. cinerea worked out at 44.2 ± 1.2%; with S. sclerotiorum, 44.9 ± 0.9%.
Take `O=C(NCc1ccc(F)cc1F)c1nc(-c2ccc(Br)nc2)no1` [Compound F19]: the mortality at 50 µg/mL was determined as 7.9 ± 1.2% with M. incognita, 64.1 ± 1.2% in the assay on C. elegans, 0% in the assay with B. xylophilus and 0% in the assay with A. besseyi. Besides, the mortality at 200 µg/mL with M. incognita was 30.7 ± 1.1%; in the assay with C. elegans, 93.5 ± 2.6%; in the assay on B. xylophilus, 30.7 ± 1.1%; with A. besseyi, 23.5 ± 2.6%. The inhibition at 50 µg/mL in the assay on B. cinerea was found to be 42.2 ± 0.2%; in the assay with S. sclerotiorum, 35.8 ± 0.8%.
With `O=C(NCCc1ncc(C(F)(F)F)cc1Cl)c1nc(-c2ccccc2)no1` [Compound F2, N-(2-(3-chloro-5-(trifluoromethyl)pyridin-2-yl)ethyl)-3-phenyl-1,2,4-oxadiazole-5-carboxamide], the mortality at 50 µg/mL in the assay with M. incognita came to 7.4 ± 3.2%; in the assay with C. elegans, 10.3 ± 1.4%; in the assay on B. xylophilus it was 0%; with A. besseyi, 0%. For the same compound, the mortality at 200 µg/mL in the assay with M. incognita turned out to be 42.6 ± 3.6%; in the assay on C. elegans, 46.7 ± 2.6%; in the assay on B. xylophilus, 5.5 ± 1.6%; with A. besseyi it was 15.1 ± 1.6%. Further, the inhibition at 50 µg/mL in the assay with B. cinerea stood at 23.6 ± 0.6%; with S. sclerotiorum, 48.6 ± 1.6%.
Regarding `O=C(NCCc1ncc(C(F)(F)F)cc1Cl)c1nc(-c2ccc(Br)nc2)no1` [Compound F18], the mortality at 50 µg/mL with M. incognita worked out at 0%; in the assay with C. elegans, 53.6 ± 2.4%; in the assay with B. xylophilus, 0%; in the assay with A. besseyi, 0%. Further, the mortality at 200 µg/mL in the assay on M. incognita came out at 36.7 ± 2.1%; in the assay on C. elegans, 90 ± 2.7%; in the assay on B. xylophilus, 15.1 ± 1.2%; with A. besseyi, 23 ± 2.3%. Moreover, the inhibition at 50 µg/mL in the assay with B. cinerea stood at 55.9 ± 1.3%; in the assay on S. sclerotiorum it was 34.9 ± 1.1%.
As to `CCOP(=O)(SC(C)CC)N1CCSC1=O` (centres unmarked) [Fosthiazate, fosthiazate, reference compound], the mortality at 50 µg/mL in the assay with M. incognita worked out at 91.4 ± 2.5%; in the assay on C. elegans, 100%; in the assay with B. xylophilus, 38.8 ± 1.3%; in the assay with A. besseyi it was 6.1 ± 3.1%. In addition, the mortality at 200 µg/mL in the assay with M. incognita was 100%; in the assay on C. elegans, 100%; in the assay with B. xylophilus, 72.4 ± 1.9%; with A. besseyi, 38.4 ± 1.9%.
Turning to `O=C(Nc1ccc(Cl)cc1Cl)c1nc(-c2ccc(Br)nc2)no1` [Compound F20], the mortality at 50 µg/mL is 8.6 ± 2.2% in the assay with M. incognita, 81.4 ± 1.5% in the assay on C. elegans, 0% in the assay on B. xylophilus and 0% in the assay with A. besseyi. For the same compound, the mortality at 200 µg/mL in the assay with M. incognita amounted to 41.2 ± 1.3%; in the assay on C. elegans it was 100%; in the assay with B. xylophilus it was 41.2 ± 1.3%; in the assay on A. besseyi it was 26.4 ± 2.5%. In addition, the inhibition at 50 µg/mL in the assay with B. cinerea stood at 55.8 ± 0.1%; in the assay on S. sclerotiorum, 13.8 ± 0.5%.

The values are drawn from article PMC8836147, “Design, Synthesis and Antifungal/Nematicidal Activity of Novel 1,2,4-Oxadiazole Derivatives Containing Amide Fragments” (International Journal of Molecular Sciences, 2022).
